For assay [1], the target named is T1, microsome prostaglandin-biosynthesis enzyme (Bos taurus, UniProt O62664).
T1 construct: microsome prostaglandin-biosynthesis enzyme (1mg/ml) fractionated from bovine seminal vesicles; from tissue; host or cells: bovine seminal vesicles (microsomes)
T1 sequence (O62664 25-600): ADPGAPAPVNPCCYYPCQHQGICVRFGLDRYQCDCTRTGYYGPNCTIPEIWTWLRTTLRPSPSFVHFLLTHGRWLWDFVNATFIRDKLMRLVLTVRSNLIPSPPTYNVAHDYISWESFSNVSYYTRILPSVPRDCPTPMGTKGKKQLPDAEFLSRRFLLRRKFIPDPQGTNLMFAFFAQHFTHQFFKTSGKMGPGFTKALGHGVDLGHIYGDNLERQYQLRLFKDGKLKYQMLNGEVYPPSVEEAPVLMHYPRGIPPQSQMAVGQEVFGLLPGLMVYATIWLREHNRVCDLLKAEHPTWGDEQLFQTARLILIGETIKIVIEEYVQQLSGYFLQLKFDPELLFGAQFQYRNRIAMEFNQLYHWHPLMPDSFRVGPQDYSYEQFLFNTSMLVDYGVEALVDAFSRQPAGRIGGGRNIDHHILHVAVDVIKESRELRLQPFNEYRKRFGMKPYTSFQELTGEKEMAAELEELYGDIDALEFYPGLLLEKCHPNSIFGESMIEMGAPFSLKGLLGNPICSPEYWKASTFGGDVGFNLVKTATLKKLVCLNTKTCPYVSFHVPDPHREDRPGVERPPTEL
Kind of assay: Inhibition of PG-biosynthesis enzyme activity, bovine seminal vesicle microsome test. It is filed as biochemical. Particulars: for IC50: bovine seminal vesicle microsome 1mg/ml, 14C-arachidonic acid 10 μM, pH 7.6, 30° C., 10 minutes, prostaglandin E2 measured, read-out: Inhibition of PG-biosynthesis enzyme activity, Bovine seminal vesicle microsome I50. The protocol:
Microsome tests were conducted according to the methods of E Takeguchi, E Kohno, C J Sih: Biochemistry 10, 2372 (1971), "Preparation of bovine seminal vesicle" and of R J Flower, H S Cheung, D W Cushman: Prostaglandins 4, 325 (1973), "Pharmacological action system."
The compounds under test were added to a system comprising microsome prostaglandin-biosynthesis enzyme (1mg/ml) fractionated from bovine seminal vesicles, glutathione (2 mM), epinephrine (1 mM) and trisaminomethane-hydrochloric acid buffer solution pH 7.6 (0.1 M). The mixture was left to stand at 30° C. for 5 minutes and commercially available ^14 C-arachidonic acid (10 μM, 50-60 nCi) was added. The resultant solution was maintained at 30° C. for 10 minutes and reaction then stopped by addition of 0.1 N hydrochloric acid. After extraction of the reaction mixture, the extract was separated by thin layer chromatography on silica gel to give the prostaglandin which was produced. The main product, prostaglandin E2, was measured using a liquid scintilation counter in accordance with the method of L Levine et al: Journal of Biological Chemistry (246, 6782 (1971). The inhibitory activities were assayed by the radioactivity ratio of the sample to a blank.

Assay [2] has as its system prostaglandin-biosynthesis in 3T6 cells. Kind of assay: Inhibition of prostaglandin-biosynthesis in cultured cells (3T6 cells from mouse fibroblasts). Conditions: for IC50: Mus musculus, Fibroblast, 3T6 cells, 2 hours contact, then arachidonic acid 5 μg/ml, 1 hour, prostaglandin E2 by radioimmunoassay, read-out: Inhibition of PG-biosynthesis enzyme activity, Culture cells I50. It is filed as cell-based. As for the experimental part:
3T6 cells from mouse fibroblasts were used as the cultured cells.
About six hundred thousand 3T6 cells were cultured in a plastics Petri dish (35 mm inner diameter) at 37° C. for 48 hours using a minimum-requirement medium, Darbecco (Trade Mark). After culturing, the cells were separated, washed, and then contacted with the same medium but containing the compound under test. After contacting for 2 hours, the medium was separated off and the cells washed. The medium containing 5 μg/ml of arachidonic acid and the test compound were added. Culturing was allowed to continue for 1 hour, and then the concentration of the prostaglandin E2 in the medium was assayed by radioimmunoassay.

The structures appear in SMILES notation.

As for `C[C@H](C(=O)O)c1ccc(CC2CCCC2O)cc1` (stereo partly drawn) [I, (2S)-2-[4-(2-hydroxycyclopentan-1-ylmethyl)phenyl]propionic acid], in assay [1], the IC50 is 72 µM.

Turning to `C[C@H](C(=O)O)c1ccc(CC2CCCC2O)cc1` (stereo partly shown) [II + III], the IC50 in assay [1] was 13 µM.

On to `C[C@H](C(=O)O)c1ccc(C[C@H]2CCC[C@@H]2O)cc1` [II, (2S)-2-{4-[(1R,2S)-2-hydroxycyclopentan-1-ylmethyl]phenyl}propionic acid], for which, in assay [1], the “inhibition of prostaglandin-biosynthesis enzyme activity (in words)” value is on record as “more active than the compound (I)” and the IC50 turned out to be 9 µM. In assay [2], the IC50 was 0.25 µM. Besides, in assay [2] (cultured cells test, called in vivo), the “activity compared to indomethacin (in words)” value is “better activity in the compound (II) compared to indomethacin”.

In the case of `COc1ccc2c(c1)c(CC(=O)O)c(C)n2C(=O)c1ccc(Cl)cc1` [IM, indomethacin, reference compound], the IC50 in assay [2] came out at 0.34 µM.
